From patent US8962662B2, “Antimicrobial compositions and methods of use thereof” (Byocoat Enterprises, Inc., priority 2011, dated 2015)
Entries after “also recorded” stand apart in the source; their conditions may differ.

Key:
yeast and mold = test: Yeast and mold growth (CFU) on whole poultry carcasses after spray treatment, day 1 versus day 7; format: cell-based; details: for log growth in yeast and mold over 7 days: day 7 minus day 1 log average
Protocol: (§1) The following solutions were prepared. A cetylpyridinium chloride (CPC) solution was prepared by combining 1.0 g of cetylpyridinium chloride (CAS No. 123-03-05) in 100 mL of water to form a nominal 1.0 wt % CPC test solution. An epsilon-polylysine (EPL) solution was prepared by combining 4.3 g epsilon-polylysine (CAS No. 25104-18-1) in water to form 100 mL of aqueous solution to form a nominal 4.3 wt % EPL test solution. The combination test solution was prepared by combining 1.0 g of cetylpyridinium chloride and 4.3 g epsilon-polylysine in water to form 100 mL of aqueous solution to form a standard concentration combination solution, and 3.7 g of this standard concentration solution was diluted up to 100 mL to form a combination test solution, which is diluted roughly 27-fold from the from the standard concentration solution.
(§2) The following test method was used. Whole poultry carcasses were collected from the processing line following evisceration and rinse. The carcasses were then treated with the CPC, EPL, or combined CPC+EPL products and dilution rates as listed above, using a Lillard spray application for 5 seconds. Following 10 seconds of dwell time, a 25 gram sample of the product was collected and immediately tested to establish a control sample set-point, and 325 grams of the same carcass were incubated at 37° C. for 168 hours (7 days). Following the incubation cycle, a second 25 gram sample was collected from the 325 gram control for testing evaluation of yeast and mold growth. A second 25 gram composite sample was collected from the same 325 gram control for pathogenic testing for salmonella presence. All samples were tested using AOAC accredited methods in an AOAC accredited API examined laboratory. Confirmation (split) samples were processed at ABC Research Laboratory.

Salmonella = test: Pathogenic testing for salmonella presence on treated poultry carcass samples after 7 day incubation; format: cell-based; details: for salmonella prevalence rate (samples tested positive): after 7 day incubation
Protocol: as §1, §2

| Compound | log growth in yeast and mold over 7 days (yeast and mold; CPC (1.0%) only) | Log Avg, CPC Day 7 (yeast and mold; average of 10 samples, cetylpyridinium chloride (1.0%), after 7 days at 37° C.) | Log Avg, CPC Day 1 (yeast and mold; average of 10 samples, cetylpyridinium chloride (1.0%), day 1 set-point) | salmonella prevalence rate (samples tested positive) (Salmonella; CPC (1.0%) only) | log growth in yeast and mold over 7 days (yeast and mold; EPL (4.3%) only) | Log Avg, EPL Day 7 (yeast and mold; average of 10 samples, ε-poly-L-lysine (4.3%), after 7 days at 37° C.) | Log Avg, EPL Day 1 (yeast and mold; average of 10 samples, ε-poly-L-lysine (4.3%), day 1 set-point) | seven-day samples tested positive for Salmonella (Salmonella; EPL (4.3%) only, 10 samples) | salmonella prevalence rate (samples tested positive) (Salmonella; EPL (4.3%) only) | Salmonella, EPL Day 7 (Salmonella; ε-poly-L-lysine (4.3%), after 7 days at 37° C.) |
| --- | --- | --- | --- | --- | --- | --- | --- | --- | --- | --- |
| CCCCCCCCCCCCCCCC[n+]1ccccc1 [CPC, cetylpyridinium chloride] | 4.995 log | 7.264 | 2.269 | 20% | – | – | – | – | – | – |
| ε-poly-L-lysine [EPL] | – | – | – | – | 3.677 log | 6.97 | 3.293 | 4 of 10 | 40% | NEGATIVE; also recorded: POSITIVE |
